Assay results taken from ChEMBL document CHEMBL1201862, “PubChem BioAssay data set” (2004).
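Briefly, cells in 96-well plates were exposed to five compound concentrations for 48 h, and endpoints were estimated by linear interpolation. GI50 = concentration required for 50% inhibition of growth.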 The source made the active and inactive calls. Cut-off read from the data, not from the text of the source: active = GI50 up to about 1.1 µM and inactive = higher.

Columns and labels:
Assay in all cases: NCI anticancer screen, dose series, 48 h
[1] = tested on: HL-60
[2] = tested on: SW-620
[3] = tested on: UACC-257
[4] = tested on: MDA-MB-231
[5] = tested on: PC-3
[6] = tested on: MDA-N
[7] = tested on: CAKI-1
[8] = tested on: RPMI-8226
[9] = tested on: NCI-H522
[10] = tested on: NCI-H460
[11] = tested on: IGROV-1
[12] = tested on: T47D
[13] = tested on: OVCAR-3
[14] = tested on: NCI-H23
[15] = tested on: KM12
[16] = tested on: U-251
[17] = tested on: UO-31
[18] = tested on: SK-MEL-2
[19] = tested on: LOX IMVI

SMILES | GI50 [1] | GI50 [2] | GI50 [3] | GI50 [4] | GI50 [5] | GI50 [6] | GI50 [7] | GI50 [8] | GI50 [9] | GI50 [10] | GI50 [11] | GI50 [12] | GI50 [13] | GI50 [14] | GI50 [15] | GI50 [16] | GI50 [17] | GI50 [18] | GI50 [19]
COc1ccc(C2(CC(C)O)SCCCS2)cc1 (configuration not stated) | 37.2 µM (inactive) | > 100 µM (inactive) | > 100 µM (inactive) | > 100 µM (inactive) | 92.7 µM (inactive) | > 100 µM (inactive) | > 100 µM (inactive) | > 100 µM (inactive) | > 100 µM (inactive) | > 100 µM (inactive) | > 100 µM (inactive) | > 100 µM (inactive) | > 100 µM (inactive) | > 100 µM (inactive) | > 100 µM (inactive) | > 100 µM (inactive) | > 100 µM (inactive) | > 100 µM (inactive) | 
COc1cccc(-n2nnc3c(N)nc(N)nc32)c1 | > 100 µM (inactive) | > 100 µM (inactive) | > 100 µM (inactive) | > 100 µM (inactive) | > 100 µM (inactive) | > 100 µM (inactive) | > 100 µM (inactive) | > 100 µM (inactive) | > 100 µM (inactive) | 94.4 µM (inactive) | 51.6 µM (inactive) | > 100 µM (inactive) | > 100 µM (inactive) | 28.9 µM (inactive) | > 100 µM (inactive) | > 100 µM (inactive) |  | > 100 µM (inactive) | > 100 µM (inactive)
CC(=O)N(O)[C@@H]1CC[C@H](n2cnc3c(N)ncnc32)C1 |  | > 100 µM (inactive) | > 100 µM (inactive) | > 100 µM (inactive) | > 100 µM (inactive) | > 100 µM (inactive) | > 100 µM (inactive) | > 100 µM (inactive) | > 100 µM (inactive) | > 100 µM (inactive) | > 100 µM (inactive) | > 100 µM (inactive) | > 100 µM (inactive) | > 100 µM (inactive) | > 100 µM (inactive) | > 100 µM (inactive) | > 100 µM (inactive) | > 100 µM (inactive) | > 100 µM (inactive)
C[C@@H]1OC(=O)C[C@H]2CC(=O)N(CCC3CN(C(=O)c4ccccc4)c4ccccc43)C[C@@H]21 (some centres not stated) |  | > 100 µM (inactive) | > 100 µM (inactive) | > 100 µM (inactive) | > 100 µM (inactive) | > 100 µM (inactive) | > 100 µM (inactive) | > 100 µM (inactive) | > 100 µM (inactive) | > 100 µM (inactive) | > 100 µM (inactive) | > 100 µM (inactive) | > 100 µM (inactive) | > 100 µM (inactive) | > 100 µM (inactive) | > 100 µM (inactive) | > 100 µM (inactive) | > 100 µM (inactive) | 
N=c1ccn2c(n1)OC1C(OP(=O)(O)O)C(CO)OC12 (configuration not stated) | 0.597 µM (active) | > 47.2 µM (inactive) | > 30.2 µM (inactive) | > 100 µM (inactive) | > 100 µM (inactive) | > 83.9 µM (inactive) | > 24.5 µM (inactive) | > 100 µM (inactive) | > 80.4 µM (inactive) | 0.53 µM (active) | > 80.7 µM (inactive) | > 100 µM (inactive) | > 71.3 µM (inactive) | 6.93 µM (inactive) | > 100 µM (inactive) | > 57.8 µM (inactive) | 7.64 µM (inactive) | > 100 µM (inactive) | 4.52 µM (inactive)
C1CC[C@H]2SSC3CCCC[C@H]3SSC2C1 (some centres not stated) | > 100 µM (inactive) | > 100 µM (inactive) | > 100 µM (inactive) | > 100 µM (inactive) | > 100 µM (inactive) | > 100 µM (inactive) |  | > 100 µM (inactive) | > 100 µM (inactive) | > 100 µM (inactive) | > 100 µM (inactive) | > 100 µM (inactive) | > 100 µM (inactive) | > 100 µM (inactive) | > 100 µM (inactive) | > 100 µM (inactive) | > 100 µM (inactive) |  | > 100 µM (inactive)
COc1ccc(CNc2nc3ccccc3nc2C(=O)O)cc1OC | > 100 µM (inactive) | > 100 µM (inactive) | > 100 µM (inactive) | > 100 µM (inactive) | > 100 µM (inactive) | > 100 µM (inactive) | > 100 µM (inactive) | > 100 µM (inactive) | > 100 µM (inactive) | > 100 µM (inactive) | > 100 µM (inactive) | > 100 µM (inactive) | > 100 µM (inactive) | > 100 µM (inactive) | > 100 µM (inactive) | 97.7 µM (inactive) | 36.5 µM (inactive) |  | > 100 µM (inactive)
COc1ccc(N2C(=O)C3c4[nH]c5ccccc5c4C4CCC(C(C)(C)C)CC4C3C2=O)c(C)c1 (configuration not stated) | > 100 µM (inactive) | > 100 µM (inactive) | > 100 µM (inactive) | > 100 µM (inactive) | > 100 µM (inactive) | > 100 µM (inactive) | > 100 µM (inactive) | > 100 µM (inactive) | > 100 µM (inactive) | > 100 µM (inactive) | > 100 µM (inactive) | > 100 µM (inactive) | > 100 µM (inactive) | > 100 µM (inactive) | > 100 µM (inactive) | > 100 µM (inactive) | > 100 µM (inactive) |  | 
